# Data taken from patent US12466854B2, “Peptide useful for the transport of molecules through cell barriers” (UNIVERSITÉ GRENOBLE ALPES, priority 2022, dated 2025).
# Test system: mice
# Assay: body temperature of mice after intravenous injection of peptides (hypothermia as reporter for crossing the BBB)
# Type: in vivo
# Conditions: 2.5 mmol/kg intravenously; for hypothermia (variation in body temperature): monitored over 90 minutes
# Protocol: Body temperature was monitored using Anipill® capsules previously implanted intraperitoneally.
# The monitoring was carried out over 90 minutes.
Substance,time following injection at which hypothermia was observed [min],hypothermia (variation in body temperature)
"TAT-NT: reference cell penetration peptide TAT fused to neurotensin, GRKKRRQRRRPQRRPYIL (SEQ ID NO: 8), positive control [reference compound]",30,approximately 1 degree Celsius
TB peptide: cell penetrating peptide of amino acid sequence RQRIWFQNRRRSRKIKK (SEQ ID NO: 1),,no signs of hypothermia
"TB-NT: TB peptide fused to neurotensin, sequence RQRIWFQNRRRSRKIKKRRPYIL (SEQ ID NO: 7)",35,approximately 3 degree Celsius
